# Experiments:
# PINK1 [1] = target: T1, PINK1 (Homo sapiens, UniProt Q9BXM7); experiment: PINK1 phosphorylation in HeLa cells (PhosTag gel electrophoresis); format: cell-based
# T1 construct: for each cell type tested (HeLa-MKYP WT or PINK1^KO); endogenous in cells; host or cells: HeLa-MKYP (WT) / HeLa cells
# α-synuclein = experiment: Preformed α-syn amyloid fibril (PFF) mouse model; format: in vivo; conditions: oral dosing; for all analyzed species of α-synuclein: 50 mg/kg max
# Description: Animals. C57BL6 mice were obtained from the Jackson Laboratories.
# Injection material and stereotaxic injections. Purification of recombinant α-synuclein proteins and in vitro fibril assembly was performed as previously described (K. C. Luk et al., Intracerebral inoculation of pathological α-synuclein initiates a rapidly progressive neurodegenerative α-synucleinopathy in mice. J. Exp. Med. 209, 975 (2012)) from full-length wildtype mouse α-synuclein (5 mg/mL). Assembly reactions were agitated in an Eppendorf orbital mixer (1,000 rpm at 37° C.) and α-synuclein pre-formed fibrils (PFFs) harvested after 5 d. Preparations were diluted in sterile PBS and sonicated briefly with a hand-held probe sonicator (Fisher Scientific Model 120) prior to injection. Mice between 2 and 3 months of age were anesthetized with ketamine hydrochloride (100 mg/kg, i.p.) and xylazine (10 mg/kg, i.p.) and stereotaxically injected in one hemisphere of the striatum with PFFs (5 μg). Control animals received sterile PBS. To target the striatum, a single needle insertion (co-ordinates: +1.0 mm relative to Bregma, +2.0 mm from midline) into the right forebrain was used (+2.6 mm beneath the dura). Injections were performed using a motorized injector at a rate of 0.2 μL per min (2.5 μL total per site) with the needle in place for >5 min at each target. Animals were monitored regularly following recovery from surgery. Starting 7 days after surgery, a daily oral dose of EP-0035985 or vehicle control was administered, continuing for the duration of the study. The animals were sacrificed at 30 days post injection by overdose with isofluorane, and their brains removed following transcardial perfusion with PBS. Brains were sectioned into striatum and ventral midbrain sections, and immediately frozen and stored at −80° C. until used.
# Biochemical analysis. Dissected brain regions of interest were extracted as in Yun, P. S., et al Nat Med. 2018 July; 24(7):931-938. Briefly, sections were homogenized in brain lysis buffer containing 10 mM Tris-HCl, pH 7.4, 150 mM NaCl, 5 mM EDTA, 0.5% IGEPAL® CA-630 (Nonidet P-40), 1× Halt™ Protease and Phosphatase Inhibitor Cocktail. 0.2 mL of buffer was used per tissue section. Samples were homogenized using a mortar pestle and then 0.3 mL brain lysis buffer was added before clearing at 300×g for 3 minutes at 4° C. Supernatant was then transferred to a new tube and cleared at 22,000×g for 20 min at 4° C. The supernatant should be transferred and the pellet washed with 0.3 mL brain lysis buffer before repeating the clearing step. Subsequent to this the pellet should be further homogenized (sonicating for 20 s at 20% amplitude on ice) in 0.2 mL per sample SDS-Brain lysis buffer containing 10 mM Tris-HCl, pH 7.4, 150 mM NaCl, 5 mM EDTA, 0.5% Nonidet P-40, 1% SDS, 0.5% sodium deoxycholate. Protein concentrations were determined using the BCA assay (Pierce) and samples (10 μg total protein) were separated on SDS-polyacrylamide gels (4-20% gradient) and transferred onto nitrocellulose membranes. Blots were blocked in 5% BSA in TBST and probed using various primary antibodies. Target antigens were detected using an Odyssey FC scanner (LiCor) following incubation with the appropriate infrared secondary antibodies.
# GDF15 = experiment: Cisplatin mouse model of mitochondrial dysfunction (GDF15 qPCR, kidney); format: in vivo, mice; conditions: oral dosing; i.p. cisplatin; FIG. 34
# Excerpt: Cisplatin is a chemotherapeutic agent reported in the literature to induce mitochondrial damage (see: Yang, Z., et al. “Cisplatin Preferentially Binds Mitochondrial DNA and Voltage-Dependent Anion Channel Protein in the Mitochondrial Membrane of Head and Neck Squamous Cell Carcinoma: Possible Role in Apoptosis.” Clinical Cancer Research 12, no. 19 (2006), 5817-5825). Growth and Differentiation Factor 15 (GDF15) is an established biomarker of mitochondrial disease and certain neurodegenerative diseases (see: Montero, R, et al. “GDF-15 Is Elevated in Children with Mitochondrial Diseases and Is Induced by Mitochondrial Dysfunction.” PLOS ONE 11, no. 2 (2016); Nohara, S, et al. “GDF-15, a mitochondrial disease biomarker, is associated with the severity of multiple sclerosis”, Journal of Neurological Sciences, Vol 405 (2019)). Briefly, mice approximately 10 weeks in age were challenged with a single intraperitoneal dose of cisplatin (10 mg/kg), then treated daily via oral gavage with either compound 35985 at various doses or vehicle control. On day 7, the animals were sacrificed. Kidneys were removed and homogenized. Following published methods, qPCR was performed on the kidney samples to determine expression levels of GDF15.
# HeLa MKYP cells = experiment: Toxicity / cell death measured by DAPI staining (take-up); format: cell-based
# Description: H2O2 treatment was performed as a control for cell death as measured by DAPI staining.
# Briefly, HeLa MKYP cells were plated at 10,000 cells/well in 96 well plates along with compounds at various concentrations. Following 16 hrs of incubation, cells were treated with 1 uM FCCP/oligomycin for 6 hours, then analyzed via FACS for the presence of mitochondria in lysosomes (as determined by an emissions spectrum shift from the pH-sensitive mtKeima tag).
# PINK1 [2] = target: T1, PINK1; experiment: Human Phospho-Ubiquitin (pS65) ub2 assay (western blot, in vitro PINK1 kinase assay); format: cell-based; conditions: in the presence of 0.5 μM FO; FIG. 14
# Description: Briefly, HeLa MKYP cells were plated at 1,300,000 cells/plate in 10 cm plates in 10 mL of medium containing compound at various concentrations. Following 16 hrs of incubation, cells were treated with 0.5 uM FCCP/oligomycin for 2 hours, then harvested. Mitochondria were then isolated according to published protocols (Ordureau et al, 2014; https://doi.org/10.1016/j.molcel.2014.09.007). Equal amounts of samples were loaded on 26 well gradient gels, and a western blot analysis was performed using commercially available antibodies for various markers, including […].
# T1 sequence (Q9BXM7 78-581): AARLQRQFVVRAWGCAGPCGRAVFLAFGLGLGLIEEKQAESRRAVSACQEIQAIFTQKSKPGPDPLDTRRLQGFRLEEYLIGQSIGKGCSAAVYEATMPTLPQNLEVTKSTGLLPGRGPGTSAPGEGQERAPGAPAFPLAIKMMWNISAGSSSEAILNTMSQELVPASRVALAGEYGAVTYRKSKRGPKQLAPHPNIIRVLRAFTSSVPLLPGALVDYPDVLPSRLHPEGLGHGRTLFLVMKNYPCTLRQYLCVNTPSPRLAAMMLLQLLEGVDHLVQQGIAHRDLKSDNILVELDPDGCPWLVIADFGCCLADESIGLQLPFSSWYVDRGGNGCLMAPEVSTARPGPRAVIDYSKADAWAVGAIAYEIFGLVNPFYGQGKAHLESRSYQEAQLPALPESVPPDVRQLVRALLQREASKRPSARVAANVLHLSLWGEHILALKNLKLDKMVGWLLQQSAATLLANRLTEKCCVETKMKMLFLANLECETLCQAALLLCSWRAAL
compound,measurement,setting,value
FC(F)(F)c1cc2c(NC3CCCc4ccccc43)ncnc2[nH]1 (centres unmarked) [Compound 15],pS65 Ubiquitin,"PINK1 [1]; 0.5, 1 μM FCCP, FIG. 33C","significant increase in pS65 Ubiquitin at 0.5, 1 μM FCCP"
same,levels of PINK1phospho,"PINK1 [1]; HeLa cells, 2.8 μM compound and 0.5, 1.0, or 2.0 μM FCCP, FIG. 33A",significantly increases the levels of PINK1phospho
same,all analyzed species of α-synuclein,"α-synuclein; contralateral striatum, FIG. 30",drives a decrease in all analyzed species of α-synuclein at 50 mg/kg max
same,all analyzed species of α-synuclein,"α-synuclein; ipsilateral striatum, FIG. 29",drives a decrease in all analyzed species of α-synuclein at 50 mg/kg max
same,c-terminal truncation of α-synuclein (14 kDA),"α-synuclein; ipsilateral striatum, FIG. 26",drives a decrease in c-terminal truncation of α-synuclein (14 kDA)
same,pS129 monomer of α-synuclein,"α-synuclein; ipsilateral striatum, FIG. 27",drives a decrease in pS129 monomer of α-synuclein
same,total monomer of α-synuclein,"α-synuclein; ipsilateral striatum, FIG. 28",drives a decrease in total monomer of α-synuclein
same,all analyzed species of α-synuclein,"α-synuclein; ventral midbrain, FIG. 31",drives a decrease in all analyzed species of α-synuclein at 50 mg/kg max
same,expression of mitochondrial disease marker GDF15,GDF15,reduces expression of mitochondrial disease marker GDF15
same,Toxicity (% positive for DAPI takeup @ 50 μM),HeLa MKYP cells; Table 2,2.1%
same,"Max cell death at 25 uM compound, 1 uM FO","HeLa MKYP cells; Table 3 Supplement B, 25 uM compound, 1 uM FO",10.7%
same,Cell death at 25 μM (no FO),"HeLa MKYP cells; Table 3 Supplement B, 25 μM, no FO",2.59%
same,Toxicity (% positive for DAPI takeup @ 50 μM),HeLa MKYP cells; Table 4,2.4%
same,pS65 Ub signal,PINK1 [2],increases the pS65 Ub signal

# Source: patent US20220162215A1, “COMPOSITIONS AND METHODS OF USING THE SAME FOR TREATMENT OF NEURODEGENERATIVE AND MITOCHONDRIAL DISEASE” (MITOKININ, INC., priority 2019, published 2022)
